According to patent US7345018B2, “Method of treating side effects induced by therapeutic agents” (Reception ApS, priority 2002, dated 2008):

Assays:
[1] = tested on: mouse kidney; assay: Inhibition of uptake of radio-labeled gentamicin into mouse kidney; assay type: in vivo; settings: intravenous co-infusion, FIG. 5
Excerpt: FIG. 5: Inhibition of uptake of radio-labeled gentamicin into mouse kidney
The drugs were administrated intravenously. […] This is most likely because infused RAP rapidly is cleared from the circulation by uptake into the liver.

[2] = tested on: cells expressing megalin and cubilin; assay: Inhibition of cellular accumulation of radiolabeled gentamicin; assay type: cell-based; settings: FIG. 4
[3] = patients, nephro- and ototoxic side effects; cited from earlier work
[4] = tested on: megalin; settings: relative to gentamicin; cited from earlier work
[5] = biological target: T1, cubilin (Oryctolagus cuniculus, UniProt U3KLX7); assay: BIAcore analysis of binding to cubilin; settings: for effect of reduction of disulfide-bridges on binding to cubilin: reduced receptor (reducing agent)
T1 construct: Megalin and cubilin purified from rabbit kidney cortex; from tissue
T1 sequence (U3KLX7 20-3539): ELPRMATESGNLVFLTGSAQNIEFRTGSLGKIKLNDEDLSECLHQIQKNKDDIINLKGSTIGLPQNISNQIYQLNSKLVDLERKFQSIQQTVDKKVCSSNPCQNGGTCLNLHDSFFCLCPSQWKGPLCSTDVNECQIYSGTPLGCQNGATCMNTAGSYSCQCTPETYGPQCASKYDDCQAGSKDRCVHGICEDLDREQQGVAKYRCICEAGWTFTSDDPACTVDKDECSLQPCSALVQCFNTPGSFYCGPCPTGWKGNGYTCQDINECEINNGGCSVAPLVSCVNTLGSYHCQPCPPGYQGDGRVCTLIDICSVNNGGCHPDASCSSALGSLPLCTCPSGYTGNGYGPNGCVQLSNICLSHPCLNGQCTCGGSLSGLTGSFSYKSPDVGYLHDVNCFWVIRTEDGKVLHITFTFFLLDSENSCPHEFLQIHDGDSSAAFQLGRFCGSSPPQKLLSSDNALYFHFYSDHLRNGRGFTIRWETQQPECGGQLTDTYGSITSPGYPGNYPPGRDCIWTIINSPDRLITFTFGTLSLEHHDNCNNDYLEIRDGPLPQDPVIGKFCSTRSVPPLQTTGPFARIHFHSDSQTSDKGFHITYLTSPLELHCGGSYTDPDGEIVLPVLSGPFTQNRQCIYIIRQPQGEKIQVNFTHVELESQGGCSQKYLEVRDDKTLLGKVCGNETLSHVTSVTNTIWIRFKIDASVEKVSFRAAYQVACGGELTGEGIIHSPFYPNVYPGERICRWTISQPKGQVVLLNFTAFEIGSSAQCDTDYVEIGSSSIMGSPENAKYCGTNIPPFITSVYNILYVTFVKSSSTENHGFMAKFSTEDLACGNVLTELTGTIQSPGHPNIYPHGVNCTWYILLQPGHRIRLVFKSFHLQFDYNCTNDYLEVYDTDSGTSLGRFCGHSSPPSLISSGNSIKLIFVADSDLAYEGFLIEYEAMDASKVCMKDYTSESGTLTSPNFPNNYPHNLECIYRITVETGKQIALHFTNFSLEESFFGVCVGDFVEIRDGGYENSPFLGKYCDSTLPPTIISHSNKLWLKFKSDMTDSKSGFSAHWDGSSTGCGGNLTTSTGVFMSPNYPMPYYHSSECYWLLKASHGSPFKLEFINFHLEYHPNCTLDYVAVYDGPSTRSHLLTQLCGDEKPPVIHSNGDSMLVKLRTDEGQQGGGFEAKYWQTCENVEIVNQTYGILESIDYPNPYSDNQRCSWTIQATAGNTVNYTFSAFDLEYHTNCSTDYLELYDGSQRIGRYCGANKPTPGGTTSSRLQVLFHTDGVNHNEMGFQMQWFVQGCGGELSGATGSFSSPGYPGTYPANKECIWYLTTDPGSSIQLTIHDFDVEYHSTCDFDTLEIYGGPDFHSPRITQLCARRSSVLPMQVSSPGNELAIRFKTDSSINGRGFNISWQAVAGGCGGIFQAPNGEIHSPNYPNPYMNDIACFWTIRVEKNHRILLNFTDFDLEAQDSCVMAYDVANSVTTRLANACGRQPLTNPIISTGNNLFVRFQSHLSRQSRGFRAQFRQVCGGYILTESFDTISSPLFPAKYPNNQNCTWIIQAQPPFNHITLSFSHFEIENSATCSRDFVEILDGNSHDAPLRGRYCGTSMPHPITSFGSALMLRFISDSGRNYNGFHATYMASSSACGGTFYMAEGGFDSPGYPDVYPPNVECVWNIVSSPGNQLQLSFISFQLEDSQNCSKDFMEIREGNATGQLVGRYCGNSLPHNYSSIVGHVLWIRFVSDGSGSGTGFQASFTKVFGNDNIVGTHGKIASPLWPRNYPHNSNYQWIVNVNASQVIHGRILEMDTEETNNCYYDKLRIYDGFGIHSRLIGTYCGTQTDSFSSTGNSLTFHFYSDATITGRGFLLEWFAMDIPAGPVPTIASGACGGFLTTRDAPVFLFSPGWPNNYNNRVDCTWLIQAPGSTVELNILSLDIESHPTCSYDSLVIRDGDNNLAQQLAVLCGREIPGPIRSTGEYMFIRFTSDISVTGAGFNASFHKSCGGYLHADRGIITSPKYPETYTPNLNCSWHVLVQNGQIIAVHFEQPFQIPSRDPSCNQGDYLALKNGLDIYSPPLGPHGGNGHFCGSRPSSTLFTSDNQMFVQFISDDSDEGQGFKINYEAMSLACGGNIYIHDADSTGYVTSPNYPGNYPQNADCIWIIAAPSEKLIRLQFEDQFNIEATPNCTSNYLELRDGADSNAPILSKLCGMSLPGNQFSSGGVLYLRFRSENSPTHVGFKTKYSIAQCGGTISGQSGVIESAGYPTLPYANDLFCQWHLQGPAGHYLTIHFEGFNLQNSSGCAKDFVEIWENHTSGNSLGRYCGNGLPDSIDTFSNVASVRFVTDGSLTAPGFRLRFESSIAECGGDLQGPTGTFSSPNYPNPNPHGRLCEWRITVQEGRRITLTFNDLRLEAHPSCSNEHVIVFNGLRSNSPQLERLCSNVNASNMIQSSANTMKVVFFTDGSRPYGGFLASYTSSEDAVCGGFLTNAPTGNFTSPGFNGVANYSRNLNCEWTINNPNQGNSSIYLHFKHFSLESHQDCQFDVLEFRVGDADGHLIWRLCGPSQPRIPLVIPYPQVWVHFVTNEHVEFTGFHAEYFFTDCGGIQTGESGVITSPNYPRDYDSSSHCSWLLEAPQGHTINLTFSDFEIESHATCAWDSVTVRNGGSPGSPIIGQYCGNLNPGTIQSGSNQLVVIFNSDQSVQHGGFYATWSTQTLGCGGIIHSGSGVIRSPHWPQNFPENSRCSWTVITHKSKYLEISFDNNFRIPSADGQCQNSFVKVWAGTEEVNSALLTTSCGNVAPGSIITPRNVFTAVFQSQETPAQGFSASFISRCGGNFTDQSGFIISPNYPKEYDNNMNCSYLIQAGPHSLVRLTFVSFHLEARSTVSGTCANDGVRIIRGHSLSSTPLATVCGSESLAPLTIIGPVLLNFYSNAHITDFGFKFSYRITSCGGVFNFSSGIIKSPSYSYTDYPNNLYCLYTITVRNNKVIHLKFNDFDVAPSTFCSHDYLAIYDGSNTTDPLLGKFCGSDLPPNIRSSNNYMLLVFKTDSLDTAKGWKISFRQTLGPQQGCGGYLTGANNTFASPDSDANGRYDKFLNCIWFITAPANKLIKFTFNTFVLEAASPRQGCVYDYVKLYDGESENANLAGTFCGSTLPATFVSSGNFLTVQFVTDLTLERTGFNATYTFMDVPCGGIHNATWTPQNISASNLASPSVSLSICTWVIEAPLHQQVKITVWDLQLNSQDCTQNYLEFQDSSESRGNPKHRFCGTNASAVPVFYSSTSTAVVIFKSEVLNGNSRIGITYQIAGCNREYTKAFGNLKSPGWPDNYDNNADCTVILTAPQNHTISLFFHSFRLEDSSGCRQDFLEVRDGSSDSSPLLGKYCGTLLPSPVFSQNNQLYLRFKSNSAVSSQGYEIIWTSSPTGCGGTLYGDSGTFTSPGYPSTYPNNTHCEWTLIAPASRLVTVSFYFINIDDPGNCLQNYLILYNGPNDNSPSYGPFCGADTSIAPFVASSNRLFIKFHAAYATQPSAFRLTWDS

[6] = biological target: T2, megalin (Mus musculus, UniProt A2ARV4); assay: Suppression of radioactive gentamicin uptake into the kidneys of wildtype mice by megalin antagonist; assay type: in vivo; settings: co-injection with radioactive gentamicin
T2 construct: from tissue; host or cells: kidney of living wildtype mice (in vivo); the knockout mice lack the receptor
Method: Two groups of wildtype mice received an injection of radioactive gentamicin. One group was also injected with polymyxin B, a substance that binds with a high affinity to megalin and displaces gentamicin from the receptor. The administration of polymyxin B reduces the uptake of aminoglycosides into the kidneys by more than 60%.

[7] = tested on: megalin; assay: BIAcore analysis of binding to megalin
[8] = biological target: T2, megalin; assay: Uptake of radioactively labelled gentamicin in wildtype and megalin-deficient (knockout) mice; assay type: in vivo; settings: wildtype mice, after 24 hours, radioactively labelled
Method: (§1) Radioactively labelled aminoglycosides (gentamicin) were injected into 26 normal (wildtype) and into 3 megalin-deficient mice (knockout). After 24 hours, the secretion of the aminoglycosides into the urine and their accumulation in the kidneys were determined. In wildtype mice, about 10% of the administered aminoglycosides are accumulated in the kidneys and 40% are secreted into the urine.
(§2) In one embodiment the animal model is a mouse model with an induced megalin gene defect (knockout mouse; Nykjaer, A. et al., Cell 96, 507-515). In these animals, the contribution of megalin and other receptor-mediated or receptor-independent processes to the drug uptake into the kidneys may be tested. The amount of intracellular accumulation of the drug in question as compared to a control having sufficient megalin indicates whether the mechanism of side effects is intracellular accumulation through megalin binding or some other mechanism.

[9] = tested on: megalin; assay: as above; assay type: in vivo, mouse; settings: megalin-deficient knockout mice, after 24 hours
Method: as §1, §2

[10] = addition of EDTA (calcium depletion)

Molecule: poly-L-lysine
- inhibition of uptake of radio-labeled gentamicin into mouse kidney [1]: can be inhibited
- inhibition of cellular accumulation of radiolabeled gentamicin [2]: can be inhibited

Molecule: NCC[C@H](O)C(=O)N[C@@H]1C[C@H](N)[C@@H](O[C@H]2O[C@H](CN)[C@@H](O)[C@H](O)[C@H]2O)[C@H](O)[C@H]1O[C@H]1O[C@H](CO)[C@@H](O)[C@H](N)[C@H]1O [amikacin]
- rate of toxicity [3]: 1-4%
- poorer binding than gentamicin to megalin [4]: about 5 times

Molecule: aprotinin
- inhibition of cellular accumulation of radiolabeled gentamicin [2]: inhibit gentamioin uptake

Molecule: RAP: receptor-associated protein, a cellular protein comprising about 300 amino acids, known to bind to megalin
- inhibition of cellular accumulation of radiolabeled gentamicin [2]: able to inhibit at least partly
- effect of reduction of disulfide-bridges on binding to cubilin [5]: significantly inhibited

Molecule: polymyxin B
- reduction of uptake of aminoglycosides into the kidneys [6]: more than 60%
- inhibition of uptake of radio-labeled gentamicin into mouse kidney [1]: can be inhibited
- inhibition of cellular accumulation of radiolabeled gentamicin [2]: inhibit gentamioin uptake

Molecule: gentamicin
- inhibition of uptake of radio-labeled gentamicin into mouse kidney [1]: can be inhibited
- binding to megalin ([7]; BIAcore, FIG. 3 panel A): direct binding
- effect of EDTA on binding to megalin [7, 10]: does not abolish binding
- effect of reduction of disulfide-bridges on binding to megalin ([7]; reduced receptor): does not significantly interefere with ligand binding
- binding to cubilin ([5]; BIAcore, FIG. 3 panel B): direct binding
- effect of EDTA on binding to cubilin [5, 10]: does not abolish binding
- effect of reduction of disulfide-bridges on binding to cubilin [5]: does not significantly interefere with ligand binding
- accumulation of administered aminoglycoside in the kidneys [8]: about 10%
- secretion of administered aminoglycoside into the urine [8]: 40%
- accumulation of aminoglycoside in the kidneys [9]: no accumulation
- secretion of antibiotic into the urine [9]: 40%

Molecule: poly-L-aspartate
- inhibition of cellular accumulation of radiolabeled gentamicin [2]: not
